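96-well plates; 48 h exposure; 5 concentrations. Endpoints by linear interpolation between flanking doses. Not reached: highest tested concentration assigned. Here, GI50 denotes the concentration required for 50% inhibition of growth. TGI: total growth inhibition.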
Assays:
Assay in all cases: NCI tumour cell line growth inhibition, 48 h
[1] = test system: ACHN renal
[2] = test system: CCRF-CEM leukemia
[3] = test system: OVCAR-4 ovarian
[4] = test system: OVCAR-5 ovarian
[5] = test system: RPMI-8226 leukemia
[6] = test system: SF-539 CNS
[7] = test system: SK-MEL-28 melanoma
[8] = test system: U251 CNS
[9] = test system: HS 578T breast
[10] = test system: MCF7 breast

SMILES | TGI [1] | TGI [2] | TGI [3] | TGI [4] | TGI [5] | TGI [6] | TGI [7] | TGI [8] | GI50 [1] | GI50 [9] | TGI [9] | GI50 [4] | GI50 [6] | GI50 [7] | GI50 [2] | GI50 [10] | TGI [10] | GI50 [3] | GI50 [5] | GI50 [8]
CN(C)c1ccc(/C=N\N2C(=O)c3ccccc3C2=O)cc1 | > 100 µM | > 100 µM | > 100 µM | > 100 µM | > 100 µM | > 100 µM | > 100 µM |  |  |  |  |  |  |  |  |  |  |  |  | 
CN(C)c1n/c(=N/c2ncn[nH]2)ss1 | > 100 µM | > 100 µM | > 100 µM | > 100 µM | > 100 µM | > 100 µM | > 100 µM | > 100 µM |  |  |  |  |  |  |  |  |  |  |  | 
CNCCCNc1nc2ccccc2c2c(=O)c3cc(Cl)ccc3sc12 | 2.89 µM |  |  | 3.03 µM |  | 3.12 µM | 3.34 µM |  | 1.51 µM | 1.72 µM | 4.31 µM | 1.62 µM | 1.68 µM | 1.82 µM |  |  |  |  |  | 
O=C(NNC(=O)c1cc(/C=C/c2cccc([N+](=O)[O-])c2)[nH]c(=S)n1)Nc1ccc(Cl)cc1 | > 100 µM | 51.2 µM |  | > 100 µM | 52.9 µM |  | > 100 µM | 30.2 µM |  |  |  |  |  |  |  |  |  |  |  | 
COC(OC)[C@@H](C)[C@H](O)[C@](C)(O)C1OC(C)(C)OC(C(C)C=C(C)C)C1C (stereo not given in full) | > 100 µM | > 100 µM | > 100 µM | > 100 µM | > 100 µM | > 100 µM | > 100 µM | > 100 µM |  |  |  |  |  |  |  |  |  |  |  | 
COc1ccc(-c2ccc(/C=N/n3c(C)nn(CN4CCN(C)CC4)c3=S)o2)c([N+](=O)[O-])c1 | > 100 µM | 61.4 µM | 35.7 µM | > 100 µM | 64.6 µM | > 100 µM | > 100 µM |  | 69.4 µM |  |  | 62.6 µM | 54.4 µM | 50 µM | 22 µM | 30.4 µM | > 100 µM | 7.91 µM | 20.6 µM | 
CCCCCC/C=C\CCCCCCCCCC1=CC(=O)C=C(OC)C1=O | 11.6 µM |  | 9.22 µM | 17.8 µM | 7.83 µM | 6.74 µM | 25.7 µM | 13.6 µM |  |  | 41.7 µM |  |  |  |  |  | 15.3 µM |  |  | 
O=C(NO)C(=O)Nc1ccc(Cl)cc1[N+](=O)[O-] | > 100 µM | > 100 µM | > 100 µM | > 100 µM | > 100 µM | > 100 µM | > 100 µM | > 100 µM |  |  |  |  |  |  |  |  |  |  |  | 
O=C(NCCCCCCCCNC(=O)c1cccc2ccccc12)c1cccc2ccccc12 | 60.8 µM | > 100 µM | 19 µM | > 100 µM | > 100 µM | 34 µM | > 94.4 µM | 45.6 µM |  |  |  |  |  |  |  |  | > 100 µM |  |  | 
CCCCCCCCCCCCN(O)C(=O)c1ccccc1 | > 100 µM | > 100 µM |  | 82.2 µM | > 100 µM | 63.6 µM | > 100 µM | 29.8 µM |  |  |  |  |  |  |  |  |  |  |  | 
CCOC(=O)NC(=O)c1cn(CCN2CCN(C(=O)CCCCCCCCCCNc3ncnc4nc[nH]c34)CC2)c(=O)[nH]c1=O | > 100 µM | > 100 µM | > 100 µM | > 100 µM | > 100 µM | > 100 µM | > 100 µM | > 100 µM |  |  |  |  |  |  |  |  |  |  |  | 
COc1ccc(/C(=N/NC(N)=O)C(c2ccc(OC)cc2)C2C(=O)Oc3ccccc32)cc1 (stereo not given) |  | > 100 µM | > 100 µM | > 100 µM | > 100 µM | > 100 µM | > 100 µM | > 100 µM |  |  |  |  |  |  |  |  |  |  |  | 
Cc1cc(C)c(S(=O)(=O)ONC(=O)OC(C)(C)C)c(C)c1 | > 100 µM | > 100 µM | > 100 µM | > 100 µM | > 100 µM | > 100 µM | > 100 µM | > 100 µM |  |  |  |  |  |  |  |  |  |  |  | 
COc1cc(-c2cc(=O)c3cc(C)c(C)c(C(=O)O)c3o2)cc(OC)c1OC | > 100 µM | > 100 µM | > 100 µM | > 100 µM | > 100 µM | > 100 µM | > 100 µM | > 100 µM |  |  |  |  |  |  |  |  |  |  |  | 
O=C(OCc1ccc2c(Cl)cc(Cl)c(O)c2n1)c1cc2ccccc2[nH]1 | 0.519 µM | 1.93 µM | 1.45 µM | 1.97 µM | 0.828 µM | 1.48 µM | 1.62 µM | 3.22 µM | 0.219 µM | 1.62 µM | 4.48 µM | 0.65 µM | 0.587 µM | 0.532 µM | 0.146 µM |  |  | 0.596 µM | 0.279 µM | 1.61 µM
O=C(O)Cn1c(=O)[nH]c(=O)c2c1ncn2Cc1ccccc1 | > 100 µM | > 100 µM |  | > 100 µM | > 100 µM | > 100 µM | > 100 µM | > 100 µM |  |  |  |  |  |  |  |  |  |  |  | 

SMILES | TGI [1] | TGI [2] | TGI [3] | TGI [4] | TGI [5] | TGI [6] | TGI [7] | TGI [8] | GI50 [1] | GI50 [9] | TGI [9] | GI50 [4] | GI50 [6] | GI50 [7] | GI50 [2] | GI50 [10] | TGI [10] | GI50 [3] | GI50 [5] | GI50 [8]
Cc1ccc(C)c(NC(=O)CCc2nc(=S)[nH][nH]2)c1 | > 100 µM | > 100 µM | > 100 µM | > 100 µM | > 100 µM | > 100 µM | > 100 µM | > 100 µM |  |  |  |  |  |  |  |  |  |  |  | 
O=C(CC(=O)C1CCOC1=O)C(=O)Nc1ccc(Cl)cc1Cl (stereo not given) | > 100 µM | > 100 µM | > 100 µM | > 100 µM | > 100 µM | > 100 µM | > 100 µM | > 100 µM |  |  |  |  |  |  |  |  |  |  |  | 
CCC(C(=O)[O-])C(=O)[O-].CCC(C(=O)[O-])C(=O)[O-].N.N.NCCCCCCN.[Pt+4].[Pt+4] | 13.4 µM | 2.87 µM | 13 µM | 19.7 µM | 11.9 µM | 21.7 µM | 14.6 µM | 16.5 µM | 6.77 µM |  |  | 10.7 µM | 10.4 µM | 6.58 µM | 1.1 µM |  |  | 5.85 µM | 3.66 µM | 8.8 µM
COc1ccc(CNc2nc3c(NC(C)=O)cc(C(F)(F)F)cc3nc2-c2ccccc2)cc1OC |  | > 100 µM | 95.7 µM | > 100 µM | > 100 µM | > 100 µM | > 100 µM | > 100 µM |  |  |  |  |  |  |  |  |  |  |  | 
C=C1C(=O)O[C@H]2[C@H]1CC/C(COC(=O)c1ccc(C#N)cc1)=C\CC[C@@]1(C)O[C@@H]21 | 4.26 µM | 6.47 µM | 9.39 µM | 9.51 µM | 4.61 µM | 3.28 µM | 4.82 µM | 10.3 µM | 1.85 µM | 3.04 µM | 15.9 µM | 3.06 µM | 1.64 µM | 2.2 µM | 0.906 µM |  |  | 2.88 µM | 1.5 µM | 2.86 µM
O=C1C(Cl)=C(Nc2cccc(O)c2)C(=O)N1c1ccccc1Cl | > 100 µM | 19.6 µM | > 100 µM | > 100 µM | 35.1 µM |  | > 100 µM | > 100 µM | > 100 µM | 21 µM | 77.7 µM | 55.2 µM |  | 58 µM | 1.48 µM | 29.8 µM | > 100 µM | 40.4 µM | 10.4 µM | 33.3 µM
COC(=O)C(Cc1nc2ccc(Cl)cc2[nH]c1=O)/C(=N/NC(N)=O)C(=O)Nc1ccc(Cl)cc1 (stereo not given) | > 100 µM | > 100 µM | > 100 µM | > 100 µM | > 100 µM | > 100 µM | > 100 µM | > 100 µM |  |  |  |  |  |  |  |  |  |  |  | 
O=C1C2c3[nH]c4ccccc4c3[C@@H]3CCCCC3C2C(=O)N1c1ccccc1 (stereo not given in full) | 81.9 µM | 80.1 µM | 75 µM | 51.8 µM | 47.7 µM |  | 33 µM | 28 µM |  |  |  |  |  |  |  |  |  |  |  | 
Cc1ccc2[nH]c3c(ncc4[nH]c5ccccc5c43)c2c1 | 30.3 µM | 35.9 µM | 37.9 µM | 30.8 µM | 44.3 µM | 30.7 µM | 32 µM | 28 µM |  |  |  |  |  |  |  |  |  |  |  | 
OC(c1ccccn1)C1CNc2ccccc21 (stereo not given) | > 100 µM | > 100 µM | > 100 µM | > 100 µM | > 100 µM | > 100 µM | > 100 µM | > 100 µM |  |  |  |  |  |  |  |  |  |  |  | 
N#CC1(C=O)c2ccccc2C=CN1C(=O)c1ccccc1 (stereo not given) | > 100 µM | 78.4 µM | > 100 µM |  |  |  | > 100 µM | > 100 µM |  |  |  |  |  |  |  |  |  |  |  | 
COC12CC(=O)C(C(C)=O)=C(O)C1(C)c1c(OC(C)=O)c(C)c(O)c(C(C)=O)c1O2 (stereo not given) | 99.2 µM | 66.8 µM | > 100 µM | > 100 µM | > 100 µM | > 100 µM | > 100 µM | > 100 µM |  |  |  |  |  |  |  |  |  |  |  | 
Cc1nc(N)sc1C(=O)Nc1cc(C(=O)NCCCN(C)C)n(C)c1 | > 100 µM | > 100 µM | > 100 µM | > 100 µM | > 100 µM | > 100 µM | > 100 µM | > 100 µM | > 100 µM |  |  | > 100 µM | > 100 µM | 65.4 µM | > 100 µM | > 100 µM | > 100 µM | > 100 µM | 60.1 µM | > 100 µM
CCC[CH2][Sn]([CH2]CCC)([O]C(=O)C1CCC(=O)N1)[O]C(=O)C1CCC(=O)N1 (stereo not given) | 0.512 µM |  | 1.71 µM | 3.48 µM | 0.669 µM | 0.414 µM | 0.654 µM | 0.33 µM | 0.22 µM |  |  | 2.05 µM | 0.185 µM | 0.258 µM |  |  |  | 0.376 µM | 0.124 µM | 0.164 µM
c1ccc(COCC2OC3c4ccccc4COC3C2OCc2ccccc2)cc1 (stereo not given) | > 100 µM |  | > 100 µM | > 100 µM | > 100 µM | > 100 µM | > 100 µM | > 100 µM |  |  |  |  |  |  |  |  |  |  |  | 
Cn1c2c(c3ccccc31)CCN(CCCCN1CCN(c3cccc(Cl)c3)CC1)C2=O | 37.6 µM | > 100 µM | 32.2 µM | 16.9 µM | 27.4 µM | 26.5 µM | 20.1 µM | 24.6 µM |  |  |  |  |  |  |  |  |  |  |  | 

Reference: PubChem BioAssay (NCI)
